One assay has as its target human CGAS (157-522) (Homo sapiens, UniProt Q8N884). Kind of assay: biochemical.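 Also: biochemical enzyme reaction, 2′3′-cGAMP product measured by RapidFire mass spectrometry (MRM) normalised to c-di-UMP internal standard, inhibition of product formation relative to high and low control wells.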
The subject of the next assay is CGAS. Kind of assay: CGAS whole blood cytokine release assay (384-well, BacMam stimulation, IP-10 by cytometric bead array). In kind it is cell-based. As to conditions: Homo sapiens, 6 h; read-out: hWB pXC50 (converted). How it is done: Blood collection: Blood was collected in a tube containing 10% Sodium Heparin (5 ml/45 ml blood final).
Protocol for CGAS Whole Blood Cytokine Release Assay: Compounds serial diluted at 1:3 were provided at 150 nL per well, in a 384 well polypropylene microplate (cat. 781280; Greiner Bio-One, Frickenhausen, Germany). 5 μL of PBS/20% Null BacMam was dispensed to all wells except for column 18 on a Multidrop Combi (Thermo Scientific, Waltham, MA). 5 uL of PBS was dispensed into column 18. The Bravo (Agilent, Santa Clara, CA) was used to transfer 45 uL of donor derived blood into the compound plates. The Bravo protocol mixed the blood and compound/PBS 5 times. The plates were incubated at 37° C., 5% CO2, for 6 hours. At the 6 hour mark the plates were removed and centrifuged for 10 minutes at 3000 RPM. 3 uL of supernatant was transferred from the plate to a 384 well NBS microplate (cat. 4513; Corning Life Sciences, Corning, NY). These plates were sealed with adhesive foil and stored in a −80 freezer until ready for analysis.
For cytokine detection, Human IP-10 BD cytometric bead array (CBA) beads (BD Biosciences, Franklin Lakes, NJ) were used. Capture bead solution was prepared by performing a 1:50 dilution of the IP-10 capture bead stock solution in BD diluent for serum/plasma (cat. 51-9003991 BD Biosciences, Franklin Lakes, NJ). 2 μL of this solution was added per well to the assay microplates which were then sealed with adhesive foil and incubated at room temperature for 2 h in the dark. Detection reagent was further prepared by performing a 1:50 dilution of the detection reagent stock solution. 2 μL of detection reagent was added per well and microplates were sealed with adhesive foil and incubated at room temperature in the dark for 1 h. After the 1 h incubation 3 uL of BD CBA wash buffer was added per well of the microplates. Data were acquired on an iQue Screener flow cytometer. The iQue used fluorescence detection to quantify the inhibition of IP-10 present in the sample wells. A sip time of 1 second per sample was used. The blue laser with excitation of 488 nm and emission filters 585/40 nm were used to capture the mean and median of IP-10 with the detector in logarithmic mode (FL2-H).
All data analysis was carried out in IDBS ActivityBase XE.

SMILES strings stand for the structures. Where a name gives a salt, the structure may show the parent alone.

Chain of human CGAS (157-522) (Q8N884 157-522): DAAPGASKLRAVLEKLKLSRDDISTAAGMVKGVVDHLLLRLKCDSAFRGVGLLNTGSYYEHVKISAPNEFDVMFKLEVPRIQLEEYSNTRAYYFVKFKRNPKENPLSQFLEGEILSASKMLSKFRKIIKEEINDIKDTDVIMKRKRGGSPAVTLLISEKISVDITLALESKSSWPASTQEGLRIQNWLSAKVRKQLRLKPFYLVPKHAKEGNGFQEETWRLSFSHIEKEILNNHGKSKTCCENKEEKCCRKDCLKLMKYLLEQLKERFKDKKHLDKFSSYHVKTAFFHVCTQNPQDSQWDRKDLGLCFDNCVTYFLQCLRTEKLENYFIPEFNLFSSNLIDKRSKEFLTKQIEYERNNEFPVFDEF

Consider `O=C(O)CCOC(=O)OCn1cnc(-c2c(-c3nc(C(F)(F)F)nn3COC(=O)OCCC(=O)O)nc3ncccn23)c1` [Example 31, 3-({[(4-{2-[1-({[(2-carboxyethoxy)carbonyl]oxy}methyl)-3-(trifluoromethyl)-1H-1,2,4-triazol-5-yl]imidazo[1,2-a]pyrimidin-3-yl}-1H-imidazol-1-yl)methoxy]carbonyl}oxy)propanoic acid, trifluoroacetic acid salt], for which the IC50 on human CGAS (157-522) is 2000 nM; in the assay with CGAS it was 5010 nM.

`O=C(O)CCOC(=O)OCn1nc(C(F)(F)F)nc1-c1nc2ncccn2c1-c1cnc[nH]1` [Example 33, 3-{[({5-[3-(1H-imidazol-5-yl)imidazo[1,2-a]pyrimidin-2-yl]-3-(trifluoromethyl)-1H-1,2,4-triazol-1-yl}methoxy)carbonyl]oxy}propanoic acid, 2 trifluoroacetic acid salt]: the figures for the IC50 on human CGAS (157-522) and in the assay on CGAS were 316 nM and 501 nM, respectively.

As to `Fc1cnc2nc(-c3nc(C(F)(F)F)n[nH]3)c(-c3cn[nH]c3)n2c1` [Example 38, 5-[6-fluoro-3-(1H-pyrazol-4-yl)imidazo[1,2-a]pyrimidin-2-yl]-3-(trifluoromethyl)-1H-1,2,4-triazole], the results for the IC50 against human CGAS (157-522) and in the assay with CGAS were 7.94 nM and 1000 nM, respectively.

Take `FC(F)c1n[nH]c(-c2nc3ncccn3c2-c2cnc[nH]2)n1` [Example 50, 3-(difluoromethyl)-5-[3-(1H-imidazol-5-yl)imidazo[1,2-a]pyrimidin-2-yl]-1H-1,2,4-triazole]: the IC50 against human CGAS (157-522) is 3.16 nM; in the assay on CGAS, 79.4 nM.

`CC(C)c1ccn2c(-c3cnc[nH]3)c(-c3nc(C(F)(F)F)n[nH]3)nc2n1` [Example 55, 5-[3-(1H-imidazol-5-yl)-7-(propan-2-yl)imidazo[1,2-a]pyrimidin-2-yl]-3-(trifluoromethyl)-1H-1,2,4-triazole]: the IC50 against human CGAS (157-522) is 7.94 nM; in the assay with CGAS, 1000 nM.

`Brc1n[nH]c(-c2nc3nc4c(cn3c2-c2cnc[nH]2)CCO4)n1` [Example 57, 11-(3-bromo-1H-1,2,4-triazol-5-yl)-12-(1H-imidazol-5-yl)-6-oxa-1,8,10-triazatricyclo[7.3.0.0^3,^7]dodeca-2,7,9,11-tetraene]: the figures for the IC50 on human CGAS (157-522) and in the assay on CGAS were 5.01 nM and 63.1 nM, respectively.

Take `COc1cnc2nc(-c3nc(C(F)(F)F)n[nH]3)c(-c3cnc[nH]3)n2c1` [Example 58, 5-[3-(1H-imidazol-5-yl)-6-methoxyimidazo[1,2-a]pyrimidin-2-yl]-3-(trifluoromethyl)-1H-1,2,4-triazole]: the IC50 against human CGAS (157-522) was 10 nM; in the assay on CGAS, 316 nM.

`OCc1cnc2nc(-c3nc(C(F)(F)F)n[nH]3)c(-c3cnc[nH]3)n2c1` [Example 61, [3-(1H-imidazol-5-yl)-2-[3-(trifluoromethyl)-1H-1,2,4-triazol-5-yl]imidazo[1,2-a]pyrimidin-6-yl]methanol]: the IC50 is 12.6 nM against human CGAS (157-522) and 398 nM with CGAS.

Take `FC(F)(F)c1n[nH]c(-c2nc3nc4c(cn3c2-c2cnc[nH]2)CNC4)n1` [Example 63, 12-(1H-imidazol-5-yl)-11-[3-(trifluoromethyl)-1H-1,2,4-triazol-5-yl]-1,5,8,10-tetraazatricyclo[7.3.0.0^3,^7]dodeca-2,7,9,11-tetraene]: the IC50 against human CGAS (157-522) is 6.31 nM; in the assay with CGAS, 794 nM.

Turning to `FC(F)(F)c1n[nH]c(-c2nc3ncc(C4CCOC4)cn3c2-c2cnc[nH]2)n1` (stereo not shown) [Example 66, 5-[3-(1H-imidazol-5-yl)-6-(oxolan-3-yl)imidazo[1,2-a]pyrimidin-2-yl]-3-(trifluoromethyl)-1H-1,2,4-triazole], the IC50 was 2.51 nM on human CGAS (157-522) and 316 nM with CGAS.

With `CC(=O)N1Cc2cn3c(-c4cnc[nH]4)c(-c4nc(C(F)(F)F)n[nH]4)nc3nc2C1` [Example 68, 1-[12-(1H-imidazol-5-yl)-11-[3-(trifluoromethyl)-1H-1,2,4-triazol-5-yl]-1,5,8,10-tetraazatricyclo[7.3.0.0^3,^7]dodeca-2,7,9,11-tetraen-5-yl]ethan-1-one], the IC50 is 5.01 nM against human CGAS (157-522) and 1260 nM in the assay on CGAS.

As for `COCc1cnc2nc(-c3nc(C(F)(F)F)n[nH]3)c(-c3cnc[nH]3)n2c1` [Example 69, 5-[3-(1H-imidazol-5-yl)-6-(methoxymethyl)imidazo[1,2-a]pyrimidin-2-yl]-3-(trifluoromethyl)-1H-1,2,4-triazole], the results for the IC50 at human CGAS (157-522) and in the assay on CGAS were 2.51 nM and 126 nM, respectively.

Turning to `FC(F)(F)c1n[nH]c(-c2nc3ncc(CN4CCOCC4)cn3c2-c2c[nH]cn2)n1` [Example 70, 4-{[3-(1H-imidazol-4-yl)-2-[3-(trifluoromethyl)-1H-1,2,4-triazol-5-yl]imidazo[1,2-a]pyrimidin-6-yl]methyl}morpholine], the IC50 was 3.16 nM against human CGAS (157-522) and 2000 nM with CGAS.

As for `FC(F)(F)c1n[nH]c(-c2nc3nc4c(cn3c2-c2cnc[nH]2)COCC4)n1` [Example 71, 6-(1H-imidazol-5-yl)-5-[3-(trifluoromethyl)-1H-1,2,4-triazol-5-yl]-11-oxa-2,4,7-triazatricyclo[7.4.0.0^3,^7]trideca-1,3,5,8-tetraene], the IC50 against human CGAS (157-522) is 5.01 nM; with CGAS, 126 nM.

Take `FC(F)(F)c1n[nH]c(-c2nc3nc4c(cn3c2-c2cn[nH]c2)COCC4)n1` [Example 72, 6-(1H-pyrazol-4-yl)-5-[3-(trifluoromethyl)-1H-1,2,4-triazol-5-yl]-11-oxa-2,4,7-triazatricyclo[7.4.0.0^3,^7]trideca-1,3,5,8-tetraene]: the IC50 on human CGAS (157-522) is 12.6 nM; with CGAS it was 15800 nM.

For `CN1CCc2nc3nc(-c4nc(C(F)(F)F)n[nH]4)c(-c4cnc[nH]4)n3cc2C1` [Example 73, 6-(1H-imidazol-5-yl)-11-methyl-5-[3-(trifluoromethyl)-1H-1,2,4-triazol-5-yl]-2,4,7,11-tetraazatricyclo[7.4.0.0^3,^7]trideca-1,3,5,8-tetraene], the IC50 on human CGAS (157-522) is 6.31 nM; with CGAS it was 794 nM.

Consider `FC(F)(F)c1n[nH]c(-c2nc3nc4c(cn3c2-c2cnc[nH]2)CNCC4)n1` [Example 74, 6-(1H-imidazol-5-yl)-5-[3-(trifluoromethyl)-1H-1,2,4-triazol-5-yl]-2,4,7,11-tetraazatricyclo[7.4.0.0^3,^7]trideca-1,3,5,8-tetraene], for which the results for the IC50 against human CGAS (157-522) and in the assay on CGAS were 7.94 nM and 1260 nM, respectively.

With `CNCc1cnc2nc(-c3nc(C(F)(F)F)n[nH]3)c(-c3cnc[nH]3)n2c1` [Example 75, {[3-(1H-imidazol-5-yl)-2-[3-(trifluoromethyl)-1H-1,2,4-triazol-5-yl]imidazo[1,2-a]pyrimidin-6-yl]methyl}(methyl)amine], the results for the IC50 against human CGAS (157-522) and with CGAS were 10 nM and 631 nM, respectively.

`FC(F)(F)c1n[nH]c(-c2nc3ncc(Br)cn3c2-c2cnc[nH]2)n1` [Example 77, 5-[6-bromo-3-(1H-imidazol-5-yl)imidazo[1,2-a]pyrimidin-2-yl]-3-(trifluoromethyl)-1H-1,2,4-triazole]: the IC50 against human CGAS (157-522) is 2 nM; in the assay with CGAS, 398 nM.

With `FC(F)(F)c1n[nH]c(-c2nc3ncc(COC4CCOC4)cn3c2-c2cnc[nH]2)n1` (stereo not shown) [Example 78, 5-[3-(1H-imidazol-5-yl)-6-[(oxolan-3-yloxy)methyl]imidazo[1,2-a]pyrimidin-2-yl]-3-(trifluoromethyl)-1H-1,2,4-triazole], the IC50 on human CGAS (157-522) was 7.94 nM; with CGAS, 398 nM.

With `CCOCc1cnc2nc(-c3nc(C(F)(F)F)n[nH]3)c(-c3cnc[nH]3)n2c1` [Example 79, 5-[6-(ethoxymethyl)-3-(1H-imidazol-5-yl)imidazo[1,2-a]pyrimidin-2-yl]-3-(trifluoromethyl)-1H-1,2,4-triazole], the IC50 was 3.16 nM at human CGAS (157-522) and 100 nM with CGAS.

As for `FC(F)(F)c1n[nH]c(-c2nc3ncc(COC4CCNC4)cn3c2-c2cnc[nH]2)n1` (stereo not shown) [Example 80, 5-[3-(1H-imidazol-5-yl)-6-[(pyrrolidin-3-yloxy)methyl]imidazo[1,2-a]pyrimidin-2-yl]-3-(trifluoromethyl)-1H-1,2,4-triazole], the IC50 was 3.16 nM against human CGAS (157-522) and 12600 nM in the assay with CGAS.

`CC(C)(C)C(=O)n1cnc(-c2c(-c3nc(C(F)(F)F)n[nH]3)nc3ncccn23)c1` [Example 81, 2,2-dimethyl-1-(4-{2-[3-(trifluoromethyl)-1H-1,2,4-triazol-5-yl]imidazo[1,2-a]pyrimidin-3-yl}-1H-imidazol-1-yl)propan-1-one]: the IC50 against human CGAS (157-522) is 3.98 nM; in the assay with CGAS it was 158 nM.

The values above are taken from patent US12247033B2, “Triazole-substituted imidazo[1,2-a]pyrimidines as cGAS inhibitors” (GlaxoSmithKline Intellectual Property Development Limited, priority 2022, dated 2025).
